Data published in patent publication US12281225B2, “Process for preparing stable polymers containing vinylimidazole” (BASF SE, priority 2018, dated 2025).

Tests used:
[1] = Iodine color number according to DIN 6162:2014-09; type: physicochemical
[2] = Analysis of active substance: preservative concentration before and after storage in VI-containing polymer solution; type: physicochemical; conditions: for active-substance concentration, 0 d, RT: before storage; for active-substance concentration, 14 d, 40° C.: storage 14 d at 40° C.; for active-substance concentration, 28 d, 40° C.: storage 28 d at 40° C.; for active-substance concentration, 60 d 40° C.: storage 60 d at 40° C.
In short: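 Preservatives (MIT, BIT, CMIT, OIT, DCOIT, iodopropynyl butyl carbamate) in aqueous vinylpyrrolidone–vinylimidazole copolymer solution quantified after dilution by isocratic RP18 chromatography with UV detection, using an acid-methanol eluent.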

[3] = system: Bacteria: Escherichia coli, Staphylococcus aureus, Pseudomonas aeruginosa, Pseudomonas putida, Burkholderia cepacia, Alcaligenes faecalis; assay: Preservation test with periodic inoculation, bacteria assessment; type: cell-based; conditions: for Start sample measurement, bact. assess., 4th inoculation: freshly formulated; for 60 d 40° C., bact. assess., 4th inoculation: sample stored 60 d at 40° C.
In short: (§1)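 Semiquantitative growth scores (−− no growth to ++ strong growth) from weekly agar streaks incubated 3 days at 25 °C. Preserved polymer samples got four weekly 0.5 ml inoculations (titer 10^9 organisms/ml), the first two days after preservative addition; testing began fresh and after 60-day storage at 40 °C.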

[4] = system: Yeast: Candida albicans, Candida valida, Rhodotorula rura, Saccharomyces cerevisiae; assay: Preservation test with periodic inoculation, yeast assessment; type: cell-based; conditions: for Start sample measurement, yeast assess., 4th inoculation: freshly formulated; for 60 d 40° C., yeast assess., 4th inoculation: sample stored 60 d at 40° C.
In short: as §1

[5] = Polymer P5 (HP56) with stabilizer

For `CCCCNC(=O)OCC#CI` [Iodopropynyl butyl carbamate, iodopropynyl butyl carbamate], the “Iodine color number, 60 d 40° C.” value ([1]; Polymer P1 with stabilizer) was 7.5, the “Iodine color number, start” value ([1]; Polymer P1 with stabilizer) was 2.8 and the “Iodine color number, 60 d 40° C.” value ([1]; Polymer P2 with stabilizer) was 8.0. The “Iodine color number, start” value ([1]; Polymer P2 with stabilizer) was 2.8, the “Iodine color number, 60 d 40° C.” value ([1]; Polymer P3 with stabilizer) was 10.4 and the “Iodine color number, start” value ([1]; Polymer P3 with stabilizer) was 3.4. The “Iodine color number, 60 d 40° C.” value ([1]; Polymer P4 with stabilizer) was 10.0, the “Iodine color number, start” value ([1]; Polymer P4 with stabilizer) was 3.4 and the “Iodine color number, 60 d 40° C.” value [1, 5] was 11.7. The “Iodine color number, start” value [1, 5] was 3.4, the “Iodine color number, 60 d 40° C.” value ([1]; Polymer P6 with stabilizer) was 11.0 and the “Iodine color number, start” value ([1]; Polymer P6 with stabilizer) was 3.4. The “Iodine color number, 60 d 40° C.” value ([1]; Polymer P7 with stabilizer) was 11.0, the “Iodine color number, start” value ([1]; Polymer P7 with stabilizer) was 3.4 and the “Iodine color number, 60 d 40° C.” value ([1]; Polymer P8 with stabilizer) was 11.4. For the same molecule, the “Iodine color number, start” value ([1]; Polymer P8 with stabilizer) was 3.4, the “Iodine color number, 60 d 40° C.” value ([1]; Polymer P9 with stabilizer) was 16.9 and the “Iodine color number, start” value ([1]; Polymer P9 with stabilizer) was 3.9. The “active-substance concentration, 0 d, RT” value ([2]; in Polymer P1) was 250 ppm, the “active-substance concentration, 14 d, 40° C.” value ([2]; in Polymer P1) was 206 ppm and the “active-substance concentration, 28 d, 40° C.” value ([2]; in Polymer P1) was 176 ppm. The “active-substance concentration, 60 d 40° C.” value ([2]; in Polymer P1) was 84 ppm, the “active-substance concentration, 0 d, RT” value ([2]; in Polymer P2) was 250 ppm and the “active-substance concentration, 14 d, 40° C.” value ([2]; in Polymer P2) was 225 ppm. For the same molecule, the “active-substance concentration, 28 d, 40° C.” value ([2]; in Polymer P2) was 183 ppm, the “active-substance concentration, 60 d 40° C.” value ([2]; in Polymer P2) was 122 ppm and the “active-substance concentration, 0 d, RT” value ([2]; in Polymer P3) was 250 ppm. The “active-substance concentration, 14 d, 40° C.” value ([2]; in Polymer P3) was 221 ppm, the “active-substance concentration, 28 d, 40° C.” value ([2]; in Polymer P3) was 190 ppm and the “active-substance concentration, 60 d 40° C.” value ([2]; in Polymer P3) was 107 ppm. The “active-substance concentration, 0 d, RT” value ([2]; in Polymer P4) was 250 ppm, the “active-substance concentration, 14 d, 40° C.” value ([2]; in Polymer P4) was 212 ppm and the “active-substance concentration, 28 d, 40° C.” value ([2]; in Polymer P4) was 188 ppm. For the same molecule, the “active-substance concentration, 60 d 40° C.” value ([2]; in Polymer P4) was 101 ppm, the “active-substance concentration, 0 d, RT” value ([2]; in Polymer P5 (HP56)) was 250 ppm and the “active-substance concentration, 14 d, 40° C.” value ([2]; in Polymer P5 (HP56)) was 206 ppm. The “active-substance concentration, 28 d, 40° C.” value ([2]; in Polymer P5 (HP56)) was 176 ppm, the “active-substance concentration, 60 d 40° C.” value ([2]; in Polymer P5 (HP56)) was 84 ppm and the “active-substance concentration, 0 d, RT” value ([2]; in Polymer P6) was 250 ppm. For the same molecule, the “active-substance concentration, 14 d, 40° C.” value ([2]; in Polymer P6) was 201 ppm, the “active-substance concentration, 28 d, 40° C.” value ([2]; in Polymer P6) was 174 ppm and the “active-substance concentration, 60 d 40° C.” value ([2]; in Polymer P6) was 80 ppm. For the same molecule, the “active-substance concentration, 0 d, RT” value ([2]; in Polymer P7) was 250 ppm, the “active-substance concentration, 14 d, 40° C.” value ([2]; in Polymer P7) was 207 ppm and the “active-substance concentration, 28 d, 40° C.” value ([2]; in Polymer P7) was 178 ppm. For the same molecule, the “active-substance concentration, 60 d 40° C.” value ([2]; in Polymer P7) was 87 ppm, the “active-substance concentration, 0 d, RT” value ([2]; in Polymer P8) was 250 ppm and the “active-substance concentration, 14 d, 40° C.” value ([2]; in Polymer P8) was 206 ppm. The “active-substance concentration, 28 d, 40° C.” value ([2]; in Polymer P8) was 176 ppm, the “active-substance concentration, 60 d 40° C.” value ([2]; in Polymer P8) was 84 ppm and the “active-substance concentration, 0 d, RT” value ([2]; in Polymer P9) was 250 ppm. The “active-substance concentration, 14 d, 40° C.” value ([2]; in Polymer P9) was 191 ppm, the “active-substance concentration, 28 d, 40° C.” value ([2]; in Polymer P9) was 160 ppm and the “active-substance concentration, 60 d 40° C.” value ([2]; in Polymer P9) was 78 ppm. The “Start sample measurement, bact. assess., 4th inoculation” value ([3]; Polymer P1) was “− (slight growth, max. 100 colonies)”, the “60 d 40° C., bact. assess., 4th inoculation” value ([3]; Polymer P1) was 0 (moderate growth, max. 400 colonies) and the “Start sample measurement, bact. assess., 4th inoculation” value ([3]; Polymer P2) was “− (slight growth, max. 100 colonies)”. For the same molecule, the “60 d 40° C., bact. assess., 4th inoculation” value ([3]; Polymer P2) was “+”, the “Start sample measurement, bact. assess., 4th inoculation” value ([3]; Polymer P3) was “− (slight growth, max. 100 colonies)” and the “60 d 40° C., bact. assess., 4th inoculation” value ([3]; Polymer P3) was “+”. The “60 d 40° C., bact. assess., 4th inoculation” value ([3]; Polymer P4) was 0 (moderate growth, max. 400 colonies), the “Start sample measurement, bact. assess., 4th inoculation” value ([3]; Polymer P5 (HP56)) was “− (slight growth, max. 100 colonies)” and the “60 d 40° C., bact. assess., 4th inoculation” value ([3]; Polymer P5 (HP56)) was “+”. The “60 d 40° C., bact. assess., 4th inoculation” value ([3]; Polymer P6) was “+”, the “60 d 40° C., bact. assess., 4th inoculation” value ([3]; Polymer P7) was “+” and the “Start sample measurement, bact. assess., 4th inoculation” value ([3]; Polymer P8) was “− (slight growth, max. 100 colonies)”. For the same molecule, the “60 d 40° C., bact. assess., 4th inoculation” value ([3]; Polymer P8) was “+”, the “60 d 40° C., bact. assess., 4th inoculation” value ([3]; Polymer P9) was “+” and the “Start sample measurement, yeast assess., 4th inoculation” value ([4]; Polymer P1) was “− (slight growth, max. 100 colonies)”. For the same molecule, the “60 d 40° C., yeast assess., 4th inoculation” value ([4]; Polymer P1) was “+ +”, the “Start sample measurement, yeast assess., 4th inoculation” value ([4]; Polymer P2) was “− (slight growth, max. 100 colonies)” and the “60 d 40° C., yeast assess., 4th inoculation” value ([4]; Polymer P2) was “+”. The “Start sample measurement, yeast assess., 4th inoculation” value ([4]; Polymer P3) was “− (slight growth, max. 100 colonies)”, the “60 d 40° C., yeast assess., 4th inoculation” value ([4]; Polymer P3) was “+” and the “Start sample measurement, yeast assess., 4th inoculation” value ([4]; Polymer P4) was “− (slight growth, max. 100 colonies)”. The “60 d 40° C., yeast assess., 4th inoculation” value ([4]; Polymer P4) was “++”, the “Start sample measurement, yeast assess., 4th inoculation” value ([4]; Polymer P5 (HP56)) was “− (slight growth, max. 100 colonies)” and the “60 d 40° C., yeast assess., 4th inoculation” value ([4]; Polymer P5 (HP56)) was “+”. For the same molecule, the “Start sample measurement, yeast assess., 4th inoculation” value ([4]; Polymer P6) was “− (slight growth, max. 100 colonies)”, the “60 d 40° C., yeast assess., 4th inoculation” value ([4]; Polymer P6) was “+” and the “Start sample measurement, yeast assess., 4th inoculation” value ([4]; Polymer P7) was “− (slight growth, max. 100 colonies)”. For the same molecule, the “60 d 40° C., yeast assess., 4th inoculation” value ([4]; Polymer P7) was “+”, the “Start sample measurement, yeast assess., 4th inoculation” value ([4]; Polymer P8) was “− (slight growth, max. 100 colonies)” and the “60 d 40° C., yeast assess., 4th inoculation” value ([4]; Polymer P8) was “+”. The “Start sample measurement, yeast assess., 4th inoculation” value ([4]; Polymer P9) was “− (slight growth, max. 100 colonies)” and the “60 d 40° C., yeast assess., 4th inoculation” value ([4]; Polymer P9) was “+”.
